# Results reported in the supplement of paper PMC11208160.
# Experiment: recombinant barcode read abundance after kanamycin selection (control-corrected) (log10(CPM+1)); higher = more efficient recombination; sequences stand for … in AGTGCAGAGAAAATCGGCCAGTTTTCTCTGCCTGCAGTCCGCATGCCGT…AGATTTATGCAGCGGACTGCCTTTCTCCCAAAGTGATAAACCGGACAGTATCATGGACCGGTTTTCCCGGTAATCCGTATTTGCAAGGTTGGTTTCACT; site = the 11-nt target
# Procedure, shortened: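 Two replicates per condition were plated: chloramphenicol/ampicillin LB agar for the control, and chloramphenicol/ampicillin/kanamycin with 0.1 mM IPTG for selection. The pooled E. coli screen behind them paired targets with IS621 bridge RNA target-binding loops. Recombination efficiency is expressed from averaged, control-corrected barcode counts per million at recombinant junctions, as log10(CPM+1).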
# 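Also: IS621 recombinase and bridge RNA in Escherichia coli cells.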
row,Sequence,recombinant barcode read abundance (log10)
1,ATCGGAGCTTGGGTTCTAACCTGTTGCCT (site ATCGGATCTAG),0.181
2,ATCGTACCTTGGGTTCTAACCTGTTGCTG (site ATCCTACCTAA),0.167
3,ATCGTACCTTGGGTTCTAACCTGTTGCTG (site ATCGTACCTCA),0.123
4,ATCTGTTCTTGGGTTCTAACCTGTTGCCT (site ACCTGTGCTAG),0.108
5,ATCTGTTCTTGGGTTCTAACCTGTTGCCT (site ATCTGTTCTAG),0.327
6,ATCTTAGCTTGGGTTCTAACCTGTTGCCT (site ATCTTAACTAG),0.0917
7,ATCTTAGCTTGGGTTCTAACCTGTTGCCT (site ATCTTACCTAG),0.141
8,ATCTTAGCTTGGGTTCTAACCTGTTGCCT (site ATCTTAGCTAG),0.266
9,ATCTTAGCTTGGGTTCTAACCTGTTGCCT (site ATCTTATCTAG),0.197
10,ATCTTGTCTTGGGTTCTAACCTGTTGCCG (site ATCTTGTCTAG),0.264
11,ATCTTGTCTTGGGTTCTAACCTGTTGCCG (site ATCTTGTCTCG),0.0848
12,ATCTTGTCTTGGGTTCTAACCTGTTGCGG (site ATCTTGTCTCC),1.83
13,ATCTTGTCTTGGGTTCTAACCTGTTGCGG (site CATGATACTAG),0.102
14,ATGAATGCTTGGGTTCTAACCTGTTGCCT (site ATGAATGCTAG),1.78
15,ATGAATGCTTGGGTTCTAACCTGTTGCCT (site ATGATTGCTAG),0.0173
16,ATGACCTCTTGGGTTCTAACCTGTTGCCT (site ATGACCTCTAG),1.46
17,ATGACCTCTTGGGTTCTAACCTGTTGCCT (site ATGCCCTCTAG),0.0297
18,ATGACCTCTTGGGTTCTAACCTGTTGCCT (site ATGGCCTCTAG),0.46
19,ATGACCTCTTGGGTTCTAACCTGTTGCCT (site ATGTCCTCTAG),0.0902
20,ATGAGAACTTGGGTTCTAACCTGTTGCCG (site ATGAGAACTAG),1.58
21,ATGAGAACTTGGGTTCTAACCTGTTGCCG (site ATGAGAACTCG),1.05
22,ATGAGGACTTGGGTTCTAACCTGTTGCGT (site ATGAGGACTAC),2.45

row,Sequence,recombinant barcode read abundance (log10)
1,ATGAGGACTTGGGTTCTAACCTGTTGCGT (site CACCCCTCTCG),0.14
2,ATGAGGCCTTGGGTTCTAACCTGTTGCCT (site ATGAGGCCTAG),0.858
3,ATGAGGCCTTGGGTTCTAACCTGTTGCCT (site CTGAGGCCTAG),0.115
4,ATGAGGCCTTGGGTTCTAACCTGTTGCCT (site GTGAGGCCTAG),0.173
5,ATGAGGCCTTGGGTTCTAACCTGTTGCCT (site TTGAGGCCTAG),0.209
6,ATGCAAGCTTGGGTTCTAACCTGTTGCCT (site ATGCAAACTAG),0.898
7,ATGCAAGCTTGGGTTCTAACCTGTTGCCT (site ATGCAACCTAG),0.0657
8,ATGCAAGCTTGGGTTCTAACCTGTTGCCT (site ATGCAAGCTAG),1.48
9,ATGCAAGCTTGGGTTCTAACCTGTTGCCT (site ATGCAATCTAG),0.234
10,ATGCATCCTTGGGTTCTAACCTGTTGCCT (site AAGCATCCTAG),0.0651
11,ATGCATCCTTGGGTTCTAACCTGTTGCCT (site ACGCATCCTAG),0.0924
12,ATGCATCCTTGGGTTCTAACCTGTTGCCT (site AGGCATCCTAG),0
13,ATGCATCCTTGGGTTCTAACCTGTTGCCT (site ATGCATCCTAG),1.99
14,ATGCCATCTTGGGTTCTAACCTGTTGCCT (site ATACCATCTAG),0.434
15,ATGCCATCTTGGGTTCTAACCTGTTGCCT (site ATCCCATCTAG),0.885
16,ATGCCATCTTGGGTTCTAACCTGTTGCCT (site ATGCCATCTAG),0.503
17,ATGCCATCTTGGGTTCTAACCTGTTGCCT (site ATTCCATCTAG),0.149
18,ATGGACACTTGGGTTCTAACCTGTTGCGT (site ATGGACACTAC),1.93
19,ATGGACACTTGGGTTCTAACCTGTTGCGT (site GACTGGCCTCT),0.133
20,ATGGCGCCTTGGGTTCTAACCTGTTGCCT (site AAGGCGCCTAG),0.296
21,ATGGCGCCTTGGGTTCTAACCTGTTGCCT (site ACGGCGCCTAG),0.846
22,ATGGCGCCTTGGGTTCTAACCTGTTGCCT (site AGGGCGCCTAG),0.183

row,Sequence,recombinant barcode read abundance (log10)
1,ATGGCGCCTTGGGTTCTAACCTGTTGCCT (site ATGGCGCCTAG),0.856
2,ATTAAGTCTTGGGTTCTAACCTGTTGCCT (site AATAAGTCTAG),0.0662
3,ATTAAGTCTTGGGTTCTAACCTGTTGCCT (site ACTAAGTCTAG),0.08
4,ATTAAGTCTTGGGTTCTAACCTGTTGCCT (site AGTAAGTCTAG),0.0808
5,ATTAAGTCTTGGGTTCTAACCTGTTGCCT (site ATTAAGTCTAG),0.359
6,ATTAGGACTTGGGTTCTAACCTGTTGCTG (site ATTAGGACTCA),2.12
7,ATTAGGACTTGGGTTCTAACCTGTTGCTG (site ATTAGGACTCT),1.56
8,ATTCAGACTTGGGTTCTAACCTGTTGCGG (site ATCCAGGCTCC),0.113
9,ATTCAGACTTGGGTTCTAACCTGTTGCGG (site ATTCAGACTCC),2.33
10,ATTCCATCTTGGGTTCTAACCTGTTGCCT (site ATACCATCTAG),0.57
11,ATTCCATCTTGGGTTCTAACCTGTTGCCT (site ATCCCATCTAG),0.281
12,ATTCCATCTTGGGTTCTAACCTGTTGCCT (site ATGCCATCTAG),0.12
13,ATTCCATCTTGGGTTCTAACCTGTTGCCT (site ATTCCATCTAG),0.538
14,ATTGCTACTTGGGTTCTAACCTGTTGCCA (site ATTGCTACTTG),0.122
15,ATTGCTACTTGGGTTCTAACCTGTTGCCA (site GAACAGCCTAC),0.143
16,ATTGGCTCTTGGGTTCTAACCTGTTGCCT (site ATTGGATCTAG),0.339
17,ATTGGCTCTTGGGTTCTAACCTGTTGCCT (site ATTGGCTCTAG),0.684
18,ATTGGCTCTTGGGTTCTAACCTGTTGCCT (site ATTGGGTCTAG),0.0639
19,ATTGGCTCTTGGGTTCTAACCTGTTGCCT (site ATTGGTTCTAG),0.0735
20,ATTGGTCCTTGGGTTCTAACCTGTTGCAT (site ATTGCTCCTAG),0.364
21,ATTGGTCCTTGGGTTCTAACCTGTTGCAT (site ATTGGTCCTAT),1.92
22,ATTTCGACTTGGGTTCTAACCTGTTGCGG (site ATTTCGACTCC),0.713
